The text below walks through data of article PMC3323550, “Functional Characterization of EngA^MS, a P-Loop GTPase of Mycobacterium smegmatis” (PLoS ONE, 2012).

The target in data set [1] is T1, EngA^MS (MSMEG_3738) (Mycolicibacterium smegmatis, UniProt A0QYP9).
T1 construct: gene der
T1 sequence (A0QYP9 1-471): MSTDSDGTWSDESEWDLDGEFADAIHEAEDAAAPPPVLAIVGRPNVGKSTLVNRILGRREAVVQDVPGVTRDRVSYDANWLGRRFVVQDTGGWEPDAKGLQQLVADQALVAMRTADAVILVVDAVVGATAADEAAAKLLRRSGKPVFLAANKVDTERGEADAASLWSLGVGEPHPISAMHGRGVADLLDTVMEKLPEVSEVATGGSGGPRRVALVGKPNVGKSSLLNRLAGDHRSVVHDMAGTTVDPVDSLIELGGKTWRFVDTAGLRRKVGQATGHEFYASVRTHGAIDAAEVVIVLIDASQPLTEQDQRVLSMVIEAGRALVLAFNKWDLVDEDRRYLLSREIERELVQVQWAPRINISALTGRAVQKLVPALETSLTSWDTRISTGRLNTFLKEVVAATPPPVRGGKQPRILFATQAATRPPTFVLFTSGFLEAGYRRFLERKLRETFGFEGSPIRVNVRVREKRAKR
The experiment in a line: colorimetric Pi release GTPase assay. The class given is biochemical.

The target in data set [2] is T2, EngA^MS (MSMEG_3738) (Mycolicibacterium smegmatis, UniProt A0QYP9, D154N).
T2 construct: gene der
T2 sequence (A0QYP9 entry or part of it D154N): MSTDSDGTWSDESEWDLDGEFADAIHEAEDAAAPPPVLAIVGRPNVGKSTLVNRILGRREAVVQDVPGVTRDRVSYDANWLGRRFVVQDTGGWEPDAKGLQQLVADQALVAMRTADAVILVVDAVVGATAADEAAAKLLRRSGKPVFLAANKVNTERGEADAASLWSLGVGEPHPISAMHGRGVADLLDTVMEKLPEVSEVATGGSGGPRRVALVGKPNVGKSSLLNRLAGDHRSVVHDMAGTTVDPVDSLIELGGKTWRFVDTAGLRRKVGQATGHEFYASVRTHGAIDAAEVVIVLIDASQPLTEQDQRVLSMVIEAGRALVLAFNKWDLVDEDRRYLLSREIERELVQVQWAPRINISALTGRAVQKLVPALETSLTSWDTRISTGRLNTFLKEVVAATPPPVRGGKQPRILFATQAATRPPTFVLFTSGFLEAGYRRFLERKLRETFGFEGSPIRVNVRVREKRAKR
The experiment in a line: fluorescent mant-nucleotide binding assay, single concentration. The settings on record: 4 µM protein, 1 µM mant-GDP, 40 mM Tris-Cl pH 8.0, 2 mM MgCl2, 40% glycerol, room temperature; labelled compound.

For data set [3], the target named is T3, EngA^MS (MSMEG_3738) (Mycolicibacterium smegmatis, UniProt A0QYP9, D331N).
T3 construct: gene der
T3 sequence (A0QYP9 entry or part of it D331N): as the sequence (A0QYP9 entry or part of it D154N) above, with N154D, D331N counted along it
Described as above. Particulars: 4 µM protein, 1 µM mant-GDP, 40 mM Tris-Cl pH 8.0, 2 mM MgCl2, 40% glycerol, room temperature; labelled compound.

Substrate in data set [4]: Nc1nc2c(ncn2[C@@H]2O[C@H](COP(=O)(O)OP(=O)(O)OP(=O)(O)O)[C@@H](O)[C@H]2O)c(=O)[nH]1
The experiment in a line: colorimetric Pi release GTPase assay. In kind it is biochemical, Mycolicibacterium smegmatis. The settings on record: 40 mM Tris-Cl pH 8.0, 2 mM MgCl2, 40% glycerol, 1 h, no GDP.

In the case of `Nc1nc2c(ncn2[C@@H]2O[C@H](COP(=O)(O)OP(=O)(O)O)[C@@H](O)[C@H]2O)c(=O)[nH]1` [GDP], the inhibition at 200 µM in data set [1] turned out to be 40%.

Take `CNc1ccccc1C(=O)O[C@H]1[C@@H](O)[C@H](n2cnc3c(=O)[nH]c(N)nc32)O[C@@H]1COP(=O)(O)OP(=O)(O)O` [mant-GDP]: the “% reduction in binding affinity vs wild-type” value in data set [2] and in data set [3] was ~ 50% each time.

B1: EngA^MS (MSMEG_3738) (Mycolicibacterium smegmatis MC2 155) (protein)
chain: T1 sequence (A0QYP9 1-471)
Consider B1, for which, in data set [4], the Km is on record as 39 µM and the kcat was found to be 8.3e-05 s⁻¹.

As usually defined, the inhibition is the drop in the measured response relative to a control, in per cent. A low value points to a weak effect. What is called Km is the concentration of substrate that gives half-maximal velocity. By kcat is commonly meant the number of substrate molecules converted per active site and unit of time at saturation.
